Assay results: patent publication US12544382B2, “2, 4, 6-tri-substituted pyrimidine compound as ATR kinase inhibitor” (BEIJING TIDE PHARMACEUTICAL CO., LTD., priority 2019, dated 2026)
pIC50: −log10 of the molar value.

Biological target: ATR kinase (Homo sapiens (Human), UniProt Q13535)
Assay: ATR kinase activity assay (time-resolved fluorescence, p53 substrate phosphorylation)
Type: biochemical
Settings: not given
Experimental: Biotinylated protein derived from p53 (Eurofins, art. No.: 14-952) was phosphorylated with ATR kinase. The amount of phosphorylated protein was determined by time-resolved fluorescence in this assay. The amount of phosphorylated protein was detected by anti-p53-phospho-(serine 15)-K-specific antibody (Cisbio, art. No.: 61GSTDLA) and d2 labeled anti-GST antibody (Cisbio, art. No. 61P08KAE). Before the experiment, the following working solution was prepared as required: 1× reaction buffer (20 mM HEPES PH8.0, 1% glycerol, 0.01% Brij-35), dilution buffer (20 mM HEPES PH8.0, 1% glycerol, 0.01% Brij-35, 5 mM DTT and 1% BSA), stop solution (20 mM HEPES PH8.0, 1% glycerol, 0.01% Brij-35, 250 mM EDTA), detection buffer (50 mM HEPES pH7.0, 150 mM NaCl, 267 mM KF, 0.1% sodium cholate, 0.01% Tween-20, 0.0125% sodium azide). The reagents used above are purchased from Sigma or Invitrogen, except for those where the manufacturer was mentioned.
Operations are as follows:
4× gradient dilution of compound solutions was prepared with 1× reaction buffer to obtain 9 compound solutions of different concentrations, and 2.5 μL 4× gradient dilution of compound solutions was added to a 384-well analysis plate (784075, Greiner). 4× p53 substrate working solution (40 nM) was prepared with 1× reaction buffer, and 2.5 μL 4× p53 substrate working solution was added to the 384-well analysis plate. 4×ATR/ATRIP working solution (12.8 ng/μL) was prepared with dilution buffer, and 2.5 μL 4×pATR/ATRIP working solution was added to the 384-well analysis plate. 4×ATP working solution (2 mM) was prepared with deionized water, 2.5 μL 4×ATP working solution was added to the 384-well analysis plate, and incubated at room temperature in dark for 30 minutes. 5 μL stop solution was added to the 384 analysis plate. Finally, 5 μL test mixture (0.084 ng/μL Anti-phospho-p53(ser15)-K and 5 ng/μL Anti-GST-d2) was added to the 384 well analysis plate, incubated overnight at room temperature, and the fluorescence signal was detected with ENVISION (Perkinelmer) instrument (excitation wavelength: 320 nm, emission wavelength: 665 nm and 615 nm). The inhibition rate in each well was calculated by the fluorescence intensity value of each hole: ER (Emission Ratio)=(Fluorescence intensity at 665 nm/Fluorescence intensity at 615 nm); inhibition rate=(ER positive-ER test compound)/(ER positive-ER negative)×100%, the IC50 value of compounds were calculated by standard parameter fitting software (GraphPad Prism 6.0).

Sequence of ATR kinase (Q13535 whole entry): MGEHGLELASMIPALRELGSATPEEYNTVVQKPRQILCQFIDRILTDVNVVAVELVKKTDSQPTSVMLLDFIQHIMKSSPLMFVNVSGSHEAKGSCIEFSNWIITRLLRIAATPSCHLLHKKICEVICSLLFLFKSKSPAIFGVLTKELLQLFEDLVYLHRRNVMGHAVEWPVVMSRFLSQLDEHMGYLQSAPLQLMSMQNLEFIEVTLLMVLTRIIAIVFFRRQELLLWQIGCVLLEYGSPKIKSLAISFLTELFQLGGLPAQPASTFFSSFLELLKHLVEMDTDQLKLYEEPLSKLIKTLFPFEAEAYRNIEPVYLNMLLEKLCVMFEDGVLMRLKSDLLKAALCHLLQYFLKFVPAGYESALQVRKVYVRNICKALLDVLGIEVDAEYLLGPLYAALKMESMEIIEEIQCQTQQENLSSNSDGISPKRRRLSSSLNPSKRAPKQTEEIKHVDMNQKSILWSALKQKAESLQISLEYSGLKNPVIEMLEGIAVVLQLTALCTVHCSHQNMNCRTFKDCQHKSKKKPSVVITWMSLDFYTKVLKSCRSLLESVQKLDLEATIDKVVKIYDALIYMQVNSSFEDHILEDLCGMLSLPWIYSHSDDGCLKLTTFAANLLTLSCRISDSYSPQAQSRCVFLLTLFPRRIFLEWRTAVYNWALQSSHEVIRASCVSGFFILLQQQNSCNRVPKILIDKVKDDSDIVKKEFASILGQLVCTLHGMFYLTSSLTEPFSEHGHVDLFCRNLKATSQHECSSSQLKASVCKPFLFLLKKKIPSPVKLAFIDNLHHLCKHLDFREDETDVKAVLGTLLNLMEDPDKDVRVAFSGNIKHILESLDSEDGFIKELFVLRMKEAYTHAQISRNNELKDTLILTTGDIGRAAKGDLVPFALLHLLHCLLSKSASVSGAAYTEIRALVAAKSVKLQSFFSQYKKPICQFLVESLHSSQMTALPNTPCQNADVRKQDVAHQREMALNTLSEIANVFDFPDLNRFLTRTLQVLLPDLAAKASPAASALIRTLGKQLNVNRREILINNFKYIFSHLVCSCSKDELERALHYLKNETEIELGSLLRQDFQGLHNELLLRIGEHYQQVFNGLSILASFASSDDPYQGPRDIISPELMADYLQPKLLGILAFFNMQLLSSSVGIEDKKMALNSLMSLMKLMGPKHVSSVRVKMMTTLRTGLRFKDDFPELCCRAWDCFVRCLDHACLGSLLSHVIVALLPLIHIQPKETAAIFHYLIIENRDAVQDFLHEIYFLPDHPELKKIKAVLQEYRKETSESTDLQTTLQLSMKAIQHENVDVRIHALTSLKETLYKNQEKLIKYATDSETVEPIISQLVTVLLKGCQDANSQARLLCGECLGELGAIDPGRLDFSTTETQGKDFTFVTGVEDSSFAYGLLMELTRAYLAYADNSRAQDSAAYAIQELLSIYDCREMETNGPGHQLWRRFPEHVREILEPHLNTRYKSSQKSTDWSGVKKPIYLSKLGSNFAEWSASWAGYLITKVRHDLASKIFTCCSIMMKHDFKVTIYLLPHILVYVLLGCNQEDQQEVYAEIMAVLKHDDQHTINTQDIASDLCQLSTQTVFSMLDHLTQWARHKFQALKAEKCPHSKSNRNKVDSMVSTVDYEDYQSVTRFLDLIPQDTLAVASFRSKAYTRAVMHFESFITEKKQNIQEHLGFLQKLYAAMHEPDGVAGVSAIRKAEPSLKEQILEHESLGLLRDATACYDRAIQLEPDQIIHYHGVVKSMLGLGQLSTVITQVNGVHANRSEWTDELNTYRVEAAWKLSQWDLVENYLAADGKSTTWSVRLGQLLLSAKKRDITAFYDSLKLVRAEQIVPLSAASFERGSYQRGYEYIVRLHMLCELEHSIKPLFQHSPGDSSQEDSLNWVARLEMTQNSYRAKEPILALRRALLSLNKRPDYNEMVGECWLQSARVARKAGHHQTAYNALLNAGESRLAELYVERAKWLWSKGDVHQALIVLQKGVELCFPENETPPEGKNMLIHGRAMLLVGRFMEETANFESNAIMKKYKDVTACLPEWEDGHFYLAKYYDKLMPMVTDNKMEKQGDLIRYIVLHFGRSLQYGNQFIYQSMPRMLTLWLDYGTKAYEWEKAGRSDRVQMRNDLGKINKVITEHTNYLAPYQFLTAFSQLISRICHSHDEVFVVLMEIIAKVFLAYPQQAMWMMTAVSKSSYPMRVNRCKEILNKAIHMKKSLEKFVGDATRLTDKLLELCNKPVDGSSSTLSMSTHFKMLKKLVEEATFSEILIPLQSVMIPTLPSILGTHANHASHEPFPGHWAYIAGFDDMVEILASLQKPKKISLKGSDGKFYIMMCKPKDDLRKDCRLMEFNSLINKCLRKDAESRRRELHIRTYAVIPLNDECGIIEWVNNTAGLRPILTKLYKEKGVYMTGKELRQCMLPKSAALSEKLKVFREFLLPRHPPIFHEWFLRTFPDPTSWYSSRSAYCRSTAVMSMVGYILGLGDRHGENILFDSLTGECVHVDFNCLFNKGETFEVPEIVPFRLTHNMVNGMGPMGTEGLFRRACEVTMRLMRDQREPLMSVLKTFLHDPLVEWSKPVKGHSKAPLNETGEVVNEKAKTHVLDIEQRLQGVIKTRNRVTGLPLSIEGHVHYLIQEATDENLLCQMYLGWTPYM
Sequence of ATR kinase (Q8WXE1 whole entry partner): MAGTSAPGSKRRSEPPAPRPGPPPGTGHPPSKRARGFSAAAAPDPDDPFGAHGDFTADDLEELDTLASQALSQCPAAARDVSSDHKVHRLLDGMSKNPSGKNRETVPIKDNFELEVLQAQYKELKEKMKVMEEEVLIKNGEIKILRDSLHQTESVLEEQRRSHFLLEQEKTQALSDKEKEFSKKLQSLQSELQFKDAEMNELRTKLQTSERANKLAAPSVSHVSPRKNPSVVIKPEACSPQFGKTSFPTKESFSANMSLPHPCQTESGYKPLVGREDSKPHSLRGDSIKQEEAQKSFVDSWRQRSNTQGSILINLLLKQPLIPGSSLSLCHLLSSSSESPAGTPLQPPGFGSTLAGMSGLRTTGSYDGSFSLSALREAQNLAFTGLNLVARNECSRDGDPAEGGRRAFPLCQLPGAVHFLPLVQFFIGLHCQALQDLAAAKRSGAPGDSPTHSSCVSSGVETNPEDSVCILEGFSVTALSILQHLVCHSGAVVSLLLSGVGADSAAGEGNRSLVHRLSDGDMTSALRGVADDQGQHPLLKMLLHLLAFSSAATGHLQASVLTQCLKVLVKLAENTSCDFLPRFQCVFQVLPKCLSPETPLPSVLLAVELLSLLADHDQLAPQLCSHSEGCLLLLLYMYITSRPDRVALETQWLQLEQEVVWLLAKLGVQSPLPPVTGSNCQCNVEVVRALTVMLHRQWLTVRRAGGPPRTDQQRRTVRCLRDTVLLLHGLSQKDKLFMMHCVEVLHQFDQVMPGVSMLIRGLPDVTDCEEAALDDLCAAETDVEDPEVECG

First: C[C@@H]1COCCN1c1cc(-c2cccc(S(C)(=O)=O)c2)nc(-c2ccnc3[nH]ccc23)n1 [Compound A4]
Second: C[C@@H]1COCCN1c1cc(-c2ccnc3[nH]ccc23)nc(-c2cccc(S(C)(=O)=O)c2)n1 [Compound B2]
The pIC50 of the first is 1.38 log units higher: 6.75 for the first, 5.37 for the second.

`C[C@@H]1COCCN1c1cc(-c2ccc(S(C)(=O)=O)cc2)nc(-c2ccnc3[nH]ccc23)n1` [Compound A5] and `C[C@@H]1COCCN1c1cc(-c2ccnc3[nH]ccc23)nc(-c2ccc(S(C)(=O)=O)cc2)n1` [Compound B3] cannot be ordered by pIC50: < 5.00 for the first, < 5.00 for the second.

Going from `Cc1c(-c2cc(N3CCOC[C@H]3C)nc(-c3ccnc4[nH]ccc34)n2)c(C(F)(F)F)nn1C` [Compound A8] to `Cc1nn(C)c(C)c1-c1nc(-c2ccnc3[nH]ccc23)cc(N2CCOC[C@H]2C)n1` [Compound B1], the pIC50 falls from 7.68 to 6.59 (1.09 log units).

`Cc1ccc(S(C)(=O)=O)cc1-c1cc(N2CCOC[C@H]2C)nc(-c2ccnc3[nH]ccc23)n1` [Compound A9] and `Cc1ccc(S(=O)(=O)N(C)C)cc1-c1cc(N2CCOC[C@H]2C)nc(-c2ccnc3[nH]ccc23)n1` [Compound A10] are within 0.2 log units of each other in pIC50: 7.51 for the first, 7.60 for the second.

First: Cc1nn(CCCO)c(C)c1-c1cc(N2CCOC[C@H]2C)nc(-c2ccnc3[nH]ccc23)n1 [Compound A11]
Second: Cc1nn(CCCN(C)C)c(C)c1-c1cc(N2CCOC[C@H]2C)nc(-c2ccnc3[nH]ccc23)n1 [Compound A22]
The pIC50 of the first is 0.73 log units higher: 7.82 for the first, 7.09 for the second.

`Cc1nn(CC(C)(C)O)c(C)c1-c1cc(N2CCOC[C@H]2C)nc(-c2ccnc3[nH]ccc23)n1` [Compound A12] and `Cc1nn(CCN(C)C)c(C)c1-c1cc(N2CCOC[C@H]2C)nc(-c2ccnc3[nH]ccc23)n1` [Compound A21] are within 0.2 log units of each other in pIC50: 7.36 for the first, 7.25 for the second.

Compared with `COc1ccc(S(=O)(=O)C(C)C)cc1-c1cc(N2CCOC[C@H]2C)nc(-c2ccnc3[nH]ccc23)n1` [Compound A13], `Cc1ccc(S(=O)(=O)C(C)C)cc1-c1cc(N2CCOC[C@H]2C)nc(-c2ccnc3[nH]ccc23)n1` [Compound A39] is 0.26 log units lower in pIC50: 7.18 for the first, 6.92 for the second.

Going from `COCCn1nc(C)c(-c2cc(N3CCOC[C@H]3C)nc(-c3ccnc4[nH]ccc34)n2)c1C` [Compound A14] to `Cc1nn(CS(C)(=O)=O)c(C)c1-c1cc(N2CCOC[C@H]2C)nc(-c2ccnc3[nH]ccc23)n1` [Compound A41], the pIC50 rises from 6.24 to 7.96 (1.72 log units).

Going from `Cc1nn(C(C)C)c(C)c1-c1cc(N2CCOC[C@H]2C)nc(-c2ccnc3[nH]ccc23)n1` [Compound A15] to `Cc1nn(C(C)C)c(C)c1-c1nc(-c2ccnc3[nH]ccc23)cc(N2CCOC[C@H]2C)n1` [Compound B6], the pIC50 falls from 7.68 to 6.01 (1.67 log units). The first is the more potent here.

Compared with `Cc1nn(C2CCNCC2)c(C)c1-c1cc(N2CCOC[C@H]2C)nc(-c2ccnc3[nH]ccc23)n1` [Compound A16], `Cc1nn(C2CCOCC2)c(C)c1-c1cc(N2CCOC[C@H]2C)nc(-c2ccnc3[nH]ccc23)n1` [Compound A24] is 1.16 log units lower in pIC50: 8.40 for the first, 7.24 for the second. The first is the more potent here.

Going from `C[C@@H]1COCCN1c1cc(-c2ccnn2C2CCCCC2)nc(-c2ccnc3[nH]ccc23)n1` [Compound A17] to `Cc1nn(C2CCCN(C)C2)c(C)c1-c1cc(N2CCOC[C@H]2C)nc(-c2ccnc3[nH]ccc23)n1` (some centres unmarked) [Compound A32], the pIC50 rises from 5.64 to 7.57 (1.93 log units). The second is the more potent here.

First: Cc1nn(CC2CNC2)c(C)c1-c1cc(N2CCOC[C@H]2C)nc(-c2ccnc3[nH]ccc23)n1 [Compound A18]
Second: Cc1nn(CC2CNC2)c(C)c1-c1nc(-c2ccnc3[nH]ccc23)cc(N2CCOC[C@H]2C)n1 [Compound B7]
The pIC50 of the first is 0.86 log units higher: 7.33 for the first, 6.47 for the second.

`Cc1nn(CC2COC2)c(C)c1-c1cc(N2CCOC[C@H]2C)nc(-c2ccnc3[nH]ccc23)n1` [Compound A19] and `Cc1nn(CC2CCOC2)c(C)c1-c1cc(N2CCOC[C@H]2C)nc(-c2ccnc3[nH]ccc23)n1` (some centres unmarked) [Compound A28] are within 0.2 log units of each other in pIC50: 7.74 for the first, 7.60 for the second.

Compared with `CCN1CCC(n2nc(C)c(-c3cc(N4CCOC[C@H]4C)nc(-c4ccnc5[nH]ccc45)n3)c2C)CC1` [Compound A20], `CCN1CCC(n2nc(C)c(-c3cc(N4CCOC[C@H]4C)nc(-c4ccnc5[nH]ccc45)n3)c2C)C1` (some centres unmarked) [Compound A31] is 0.31 log units higher in pIC50: 7.01 for the first, 7.32 for the second.

Compared with `Cc1nn(C2CCN(S(C)(=O)=O)C2)c(C)c1-c1cc(N2CCOC[C@H]2C)nc(-c2ccnc3[nH]ccc23)n1` (some centres unmarked) [Compound A23], `Cc1nn(C2CCN(C)CC2)c(C)c1-c1cc(N2CCOC[C@H]2C)nc(-c2ccnc3[nH]ccc23)n1` [Compound A37] is 0.42 log units lower in pIC50: 7.85 for the first, 7.43 for the second.

Going from `CCNC(=O)Nc1ccc(-c2nc(-c3c(C)nn(C)c3C)cc(N3CCOC[C@H]3C)n2)cc1` [Compound A26] to `Cc1nn(C)c(C)c1-c1nc(-c2ccnc(C(F)F)c2)cc(N2CCOC[C@H]2C)n1` [Compound B8], the pIC50 falls from 5.66 to < 5.00. The first is the more potent here.

`CC(C)S(=O)(=O)c1ccc(C(F)(F)F)c(-c2cc(N3CCOC[C@H]3C)nc(-c3ccnc4[nH]ccc34)n2)c1` [Compound A29] and `CCN(C)S(=O)(=O)c1ccc(C(C)C)c(-c2cc(N3CCOC[C@H]3C)nc(-c3ccnc4[nH]ccc34)n2)c1` [Compound A33] are within 0.2 log units of each other in pIC50: 6.20 for the first, 6.03 for the second.

Going from `CCN(C)S(=O)(=O)c1ccc(OC)c(-c2cc(N3CCOC[C@H]3C)nc(-c3ccnc4[nH]ccc34)n2)c1` [Compound A30] to `Cc1ccc(S(=O)(=O)N(C)CCN(C)C)cc1-c1cc(N2CCOC[C@H]2C)nc(-c2ccnc3[nH]ccc23)n1` [Compound A34], the pIC50 falls from 6.96 to 6.55 (0.41 log units). The first is the more potent here.

`CCN1CCN(S(=O)(=O)c2ccc(C)c(-c3cc(N4CCOC[C@H]4C)nc(-c4ccnc5[nH]ccc45)n3)c2)CC1` [Compound A35] and `Cc1ccc(S(=O)(=O)C2CCN(C)CC2)cc1-c1cc(N2CCOC[C@H]2C)nc(-c2ccnc3[nH]ccc23)n1` [Compound A36] are within 0.2 log units of each other in pIC50: 7.20 for the first, 7.04 for the second.

Compared with `Cc1nn(CC2CCCN(C)C2)c(C)c1-c1cc(N2CCOC[C@H]2C)nc(-c2ccnc3[nH]ccc23)n1` (some centres unmarked) [Compound A38], `Cc1nn(C)cc1-c1nc(-c2ccnc3[nH]ccc23)cc(N2CCOC[C@H]2C)n1` [Compound B5] is 1.73 log units lower in pIC50: 7.52 for the first, 5.79 for the second. The first is the more potent here.

Compared with `Cc1ccc(S(=O)(=O)NCCCO)cc1-c1cc(N2CCOC[C@H]2C)nc(-c2ccnc3[nH]ccc23)n1` [Compound A40], `Cc1c(-c2nc(-c3ccnc4[nH]ccc34)cc(N3CCOC[C@H]3C)n2)cnn1C` [Compound B4] is 1.54 log units lower in pIC50: 7.30 for the first, 5.76 for the second. The first is the more potent here.

First: Cc1nn(C)c(C)c1-c1nc(-c2ccnc3[nH]ccc23)nc(N2CCOC[C@H]2C)n1 [Compound C1]
Second: Cc1c(-c2cc(N3CCOC[C@H]3C)nc(-c3ccc(C#N)c4[nH]ccc34)n2)c(C(F)(F)F)nn1C1CCNCC1 [Compound D5]
The pIC50 of the first is 0.42 log units higher: 7.39 for the first, 6.97 for the second.

`CSc1nc2cc(F)ccc2n1-c1nc(-c2c(C)nn(C3CCNCC3)c2C(F)(F)F)cc(N2CCOC[C@H]2C)n1` [Compound D31] and `Cc1nn(C2CCNCC2)c(C(F)(F)F)c1-c1cc(N2CCOC[C@H]2C)nc(-n2c(CO)nc3cc(F)ccc32)n1` [Compound D32] are within 0.2 log units of each other in pIC50: 5.57 for the first, 5.75 for the second.

`CNc1nc2ccc(F)cc2n1-c1nc(-c2c(C(F)(F)F)nn(C3CCCNC3)c2C)cc(N2CCOC[C@@H]2C)n1` (some centres unmarked) [Compound D34] and `CCNC(=O)Nc1nc2ccccc2n1-c1nc(-c2c(C)nn(C3CCNCC3)c2C(F)(F)F)cc(N2CCOC[C@@H]2C)n1` [Compound D37] are within 0.2 log units of each other in pIC50: 7.14 for the first, 7.15 for the second.

In the case of `Cc1c(-c2cc(N3CCOC[C@H]3C)nc(-c3cc(F)cc4[nH]ccc34)n2)c(C(F)(F)F)nn1C1CC2(CNC2)C1` [Compound D50], the pIC50 was 8.52.

Test system: MV4-11 (leukemia) cells
Assay: In vitro cell proliferation inhibition assay (CellTiter-Glo), MV4-11
Type: cell-based, human
Settings: MV4-11 cells, 120 hours
Experimental: By detecting the effect of compound on cell activity in vitro in the tumor cell lines TOV21G (ovarian cancer) and MV4-11 (leukemia), the effect of compound inhibiting cell proliferation was studied in this assay.
TOV21G cells and MV4-11 cells were purchased from American Type Culture Collection (ATCC).
MV-4-11 cells were cultured in IMDM medium (containing 20% FBS), each well of a 96-well culture plate was inoculated with about 10000 cells, and treated with different concentrations (0-10 μM) of compounds to be tested in triplex. Blank wells (containing medium only) and control wells (inoculated with cells but not treated with drug) were set. Cells were cultured for 120 hours, 40 μL Cell Titer-Glo solution was added to each well, incubated with shaking for 20 min in the dark, 100 μL solution was transferred from each well to a 96-well white plate, and the luminescence value was read by Biotek Synergy H1 multifunctional microplate reader. Inhibition rate (%)=100%×(control well−test well)/(control well−blank well)

Work on `Cc1c(-c2cc(N3CCOC[C@H]3C)nc(-c3cc(F)cc4[nH]ccc34)n2)c(C(F)(F)F)nn1C1CC2(CNC2)C1` [Compound D50] yielded a pIC50 of 6.09.
